# Patent US10596095B2, “Method for moisturizing skin using P-113 peptide” (PACGEN LIFE SCIENCE CORPORATION, priority 2015, dated 2020)
# Key:
# cells = assay: Cytotoxicity test: MTT assay of cell survival rate; format: cell-based; conditions: 0, 20, 100 and 200 μg/ml; treated 2 hours; FIG. 2
# Protocol: The cytotoxicity test was performed with Methylthiazol tetrazolium bromide (MTT) assay to test the cell survival rate. The principle was that MTT is a water-soluble yellow dye, after reacting with cells it was reduced by the NADPH in the cells to become an insoluble dark blue crystal, then the blue crystal was dissolved with dimethyl sulfoxide (DMSO), the absorbance value was analyzed, the stronger the cell activity, the darker the blue, and when the cell was dead, it became yellow.
# In the present invention, from low to high concentration (0, 20, 100 and 200 μg/ml) of P-113 peptide and the MI preservative were used to treat the cells for 2 hours, then the MTT solution was added for reaction, a spectrophotometer at the wavelength of 595 nm was used to analyze the cell survival rate, and the harmful toxic effect of the cosmetic raw material on the cells was determined.
# [1] = Moisture retention rate in Conway's dish at defined relative humidity; format: physicochemical; conditions: relative humidity 32%; 30° C., 24 hours; reference set as 100%; FIG. 4
# Protocol: In addition, the moisture retention and water absorption of P-113 peptide were determined by dissolving magnesium chloride (MgCl2) and potassium chloride (KCl), two types of salts, in water, preparing supersaturated solutions based on the solubility of these two types of salt respectively, separately placing in sealed bottles to create a relative humidity of 32% and 84% respectively, then using P-113 peptide and hyaluronic acid for comparison test.
# 0.1 g of P-113 peptide and hyaluronic acid powder were weighed and placed in the internal chamber of a Conway's dish, then 0.1 ml of deionized water was added, saturated solutions were then added in the external chamber, sealed with the Conway's dish lid and placed in the oven at 30° C. for 24 hours, then samples were removed and weighed.
# Moisture retention at different humidity levels was calculated according to the following formula: Moisture retention rate (%)=[1−((Wt−W0)/W0)]×100%
# (§1) wherein W0: the weight (g) of the initial sample, and Wt: the weight (g) of the sample removed after 24 hours.
# [2] = Moisture absorption rate in Conway's dish at defined relative humidity; format: physicochemical; conditions: relative humidity 32%; 30° C., 24 hours; relative to hyaluronic acid at RH 32% set as 100%; FIG. 3
# Protocol: The moisture absorption of the P-113 peptide was determined by dissolving magnesium chloride (MgCl2) and potassium chloride (KCl), two types of salts, in water, preparing supersaturated solutions based on the respective solubility of these two types of salts, placing the solutions in sealed bottles to create a relative humidity of 32% and 84%, respectively, then taking P-113 peptide and hyaluronic acid for comparison test. The hyaluronic molecule of hyaluronic acid could carry up to 500 folds of water. The hyaluronic acid is currently recognized as the best moisturizing ingredient, and widely used in cosmetics and skincare products.
# 0.1 g of P-113 peptide and hyaluronic acid powder were weighed and placed in the internal chamber of a Conway's dish, saturated solutions were added in the external chamber, oil was applied on the rim of the Conway's dish lid to seal it completely, placed in an oven at 30° C. for 24 hours, then samples were removed and weighed.
# Moisture absorption rate under different humidity was calculated by the following formula: Moisture absorption rate (%)=[(Wt−W0)/W0]×100%
# as §1
molecule,measurement,setting,value
"Cn1sccc1=O [MI, Methylisothiazolinone]",cell survival rate (MTT),cells,decreased the cell survival rate
hyaluronic acid,moisture retention rate,[1],100%
same,moisture absorption rate,[2],100%
